Assay results as given in US11642348B2, “Substituted benzene compounds” (Epizyme, Inc., priority 2012, dated 2023).

Columns and labels:
WSU-DLCL2 cells = assay: Cell proliferation analysis (WSU-DLCL2, Cell Titer Glo); assay type: cell-based; conditions: Homo sapiens, WSUDLCL2, Table 3B, 6 days, read-out: WSU proliferation IC50
[1] = target: wild-type EZH2 (PRC2 complex) (Homo sapiens (Human), UniProt Q15910); assay: PRC2 enzyme assay on peptide substrates (wild-type EZH2); conditions: read-out: WT EZH2 IC50; Table 3B; wild-type PRC2 enzyme, peptide substrate
[2] = test system: H3K27me3 in WSU-DLCL2 cells; assay: WSU-DLCL2 methylation assay (H3K27me3 ELISA); assay type: cell-based; conditions: Homo sapiens, WSUDLCL2, Table 3B, 96 hours, read-out: ELISA H3K27me3 IC50

wild-type EZH2 (PRC2 complex), sequence (Q15910 other isoform, or with tags, fused parts or gaps): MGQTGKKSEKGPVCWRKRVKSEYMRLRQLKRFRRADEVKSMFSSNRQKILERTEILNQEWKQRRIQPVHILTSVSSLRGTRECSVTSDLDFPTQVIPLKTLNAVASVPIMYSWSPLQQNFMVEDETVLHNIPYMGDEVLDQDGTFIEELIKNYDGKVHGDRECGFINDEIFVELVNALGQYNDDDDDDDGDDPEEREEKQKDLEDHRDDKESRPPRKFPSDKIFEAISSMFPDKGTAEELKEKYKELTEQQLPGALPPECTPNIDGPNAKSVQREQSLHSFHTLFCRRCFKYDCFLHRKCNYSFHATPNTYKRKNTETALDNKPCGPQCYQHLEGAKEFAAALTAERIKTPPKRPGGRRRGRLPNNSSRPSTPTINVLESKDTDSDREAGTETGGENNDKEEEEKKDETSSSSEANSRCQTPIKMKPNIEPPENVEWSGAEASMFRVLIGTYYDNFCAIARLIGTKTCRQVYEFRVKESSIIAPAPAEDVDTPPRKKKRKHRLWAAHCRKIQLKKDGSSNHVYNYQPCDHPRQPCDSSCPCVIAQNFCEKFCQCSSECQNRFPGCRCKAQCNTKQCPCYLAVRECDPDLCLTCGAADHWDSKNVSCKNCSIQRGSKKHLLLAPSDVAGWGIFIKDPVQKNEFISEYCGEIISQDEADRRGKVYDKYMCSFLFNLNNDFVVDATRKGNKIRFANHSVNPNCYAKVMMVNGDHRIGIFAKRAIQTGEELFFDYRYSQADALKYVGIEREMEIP
wild-type EZH2 (PRC2 complex), sequence (O75530 whole entry partner): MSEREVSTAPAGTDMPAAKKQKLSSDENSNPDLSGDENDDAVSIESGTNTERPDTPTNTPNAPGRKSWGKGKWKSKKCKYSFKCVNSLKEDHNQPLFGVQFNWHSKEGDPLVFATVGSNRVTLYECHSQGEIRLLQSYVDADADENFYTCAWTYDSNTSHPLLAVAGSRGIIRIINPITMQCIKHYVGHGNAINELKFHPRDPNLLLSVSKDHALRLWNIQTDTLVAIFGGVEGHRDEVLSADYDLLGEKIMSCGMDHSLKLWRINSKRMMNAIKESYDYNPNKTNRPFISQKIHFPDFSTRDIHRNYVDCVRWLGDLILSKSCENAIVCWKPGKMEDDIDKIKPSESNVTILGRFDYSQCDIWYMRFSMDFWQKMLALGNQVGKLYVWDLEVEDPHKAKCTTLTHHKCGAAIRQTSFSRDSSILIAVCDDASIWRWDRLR
wild-type EZH2 (PRC2 complex), sequence (Q15022 whole entry partner): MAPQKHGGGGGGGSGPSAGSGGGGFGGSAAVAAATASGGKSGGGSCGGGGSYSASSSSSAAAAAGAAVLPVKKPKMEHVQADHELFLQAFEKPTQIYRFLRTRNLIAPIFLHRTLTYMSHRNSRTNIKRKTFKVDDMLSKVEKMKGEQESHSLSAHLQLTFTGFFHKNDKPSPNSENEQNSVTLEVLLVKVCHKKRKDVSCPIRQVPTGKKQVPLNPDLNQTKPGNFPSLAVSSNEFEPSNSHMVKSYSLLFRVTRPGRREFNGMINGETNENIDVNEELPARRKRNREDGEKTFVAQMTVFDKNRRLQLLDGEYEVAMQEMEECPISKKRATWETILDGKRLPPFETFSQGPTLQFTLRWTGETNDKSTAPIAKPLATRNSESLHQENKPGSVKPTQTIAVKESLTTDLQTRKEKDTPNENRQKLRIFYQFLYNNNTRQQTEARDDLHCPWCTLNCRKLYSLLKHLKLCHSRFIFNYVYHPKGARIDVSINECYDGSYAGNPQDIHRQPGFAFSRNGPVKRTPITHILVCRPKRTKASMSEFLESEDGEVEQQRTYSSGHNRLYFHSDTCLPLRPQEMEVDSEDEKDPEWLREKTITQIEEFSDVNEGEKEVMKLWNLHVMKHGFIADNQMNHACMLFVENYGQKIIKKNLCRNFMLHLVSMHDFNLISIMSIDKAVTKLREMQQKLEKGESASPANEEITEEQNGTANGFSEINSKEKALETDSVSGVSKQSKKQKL
wild-type EZH2 (PRC2 complex), sequence (Q09028 whole entry partner): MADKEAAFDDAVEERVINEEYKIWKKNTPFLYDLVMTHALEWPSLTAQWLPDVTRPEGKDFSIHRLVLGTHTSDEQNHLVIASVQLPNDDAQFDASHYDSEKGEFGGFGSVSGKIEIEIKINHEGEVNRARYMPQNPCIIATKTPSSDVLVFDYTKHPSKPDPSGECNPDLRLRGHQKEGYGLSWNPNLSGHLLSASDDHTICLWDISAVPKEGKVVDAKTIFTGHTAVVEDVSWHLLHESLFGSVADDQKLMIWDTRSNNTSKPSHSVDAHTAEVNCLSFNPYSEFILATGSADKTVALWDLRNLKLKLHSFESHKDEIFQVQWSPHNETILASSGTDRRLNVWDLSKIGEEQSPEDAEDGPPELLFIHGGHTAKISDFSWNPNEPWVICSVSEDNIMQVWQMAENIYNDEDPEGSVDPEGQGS

Compound	IC50 [1] [nM]	IC50 [2] [nM]	IC50 (WSU-DLCL2 cells) [nM]
CCN(c1cc(C#CC2CCN(C[C@@H](C)O)CC2)cc(C(=O)NCc2c(C(C)C)cc(C)[nH]c2=O)c1C)C1CCOCC1 [Compound 102]	10	256	614
CCN(c1cc(C#CC2CCN(C[C@H](C)O)CC2)cc(C(=O)NCc2c(C(C)C)cc(C)[nH]c2=O)c1C)C1CCOCC1 [Compound 103]	< 10	232	745
CCN(c1cc(C#CCN2CCC[C@H](O)C2)cc(C(=O)NCc2c(C)cc(C)[nH]c2=O)c1C)[C@H]1CC[C@H](N(C)C)CC1 [Compound 108]	< 10	42	438
CCN(c1cc(C#CCN2CC(O)C2)cc(C(=O)NCc2c(C)cc(C)[nH]c2=O)c1C)[C@H]1CC[C@H](N(C)C)CC1 [Compound 109]	< 10	244	1060
CCN(c1cc(C#CCN2CC(O)C2)cc(C(=O)NCc2c(C(C)C)cc(C)[nH]c2=O)c1C)[C@H]1CC[C@H](N(C)C)CC1 [Compound 110]	< 10	2010	2450
CCN(c1cc(F)cc(C(=O)NCc2c(C)cc(C)n(C)c2=O)c1C)C1C[C@@H](C)N[C@H](C)C1 (stereo partly drawn) [Compound 113]	1220	> 25000	> 20000
CCN(c1cc(F)cc(C(=O)NCc2c(C)c(F)c(C)n(C)c2=O)c1C)C1C[C@@H](C)N[C@H](C)C1 (stereo partly drawn) [Compound 115]	497	> 25000	> 20000
CCCc1cc(C)[nH]c(=O)c1CNC(=O)c1cc(F)cc(N(CC)C2C[C@@H](C)N[C@H](C)C2)c1C (stereo partly drawn) [Compound 116]	132	> 25000	13200
CCN(c1cc(F)cc(C(=O)NCc2c(C(C)C)cc(C)[nH]c2=O)c1C)C1C[C@@H](C)N[C@H](C)C1 (stereo partly drawn) [Compound 117]	350	8960	> 20000
CCN(c1cc(F)cc(C(=O)NCc2c(C)cc(C)[nH]c2=O)c1C)C1C[C@@H](C)N(C)[C@H](C)C1 (stereo partly drawn) [Compound 118]	36.3	11700	3950
CCN(c1cc(F)cc(C(=O)NCc2c(C)cc(C)[nH]c2=O)c1C)C1C[C@@H](C)N(CC)[C@H](C)C1 (stereo partly drawn) [Compound 119]	18.5	11300	3380
CCN(c1cc(-c2ccc(OC)nc2)cc(C(=O)NCc2c(C)cc(C)[nH]c2=O)c1C)C1C[C@@H](C)N[C@H](C)C1 (stereo partly drawn) [Compound 120]	< 10	1430	1380
CCN(c1cc(-c2ccc(CN3CCOCC3)nc2)cc(C(=O)NCc2c(C)cc(C)[nH]c2=O)c1C)C1C[C@@H](C)N[C@H](C)C1 (stereo partly drawn) [Compound 121]	< 10	13900	3830
CCN(c1cc(-c2ccc(CN3CCN(C)CC3)nc2)cc(C(=O)NCc2c(C)cc(C)[nH]c2=O)c1C)C1C[C@@H](C)N[C@H](C)C1 (stereo partly drawn) [Compound 122]	< 10	> 25000	7560
CCN(c1cc(-c2ccc(CN3CCNCC3)nc2)cc(C(=O)NCc2c(C)cc(C)[nH]c2=O)c1C)C1C[C@@H](C)N[C@H](C)C1 (stereo partly drawn) [Compound 123]	< 10	> 25000	7900
CCN(c1cc(-c2ccc(CN3CCCN(C)CC3)nc2)cc(C(=O)NCc2c(C)cc(C)[nH]c2=O)c1C)[C@H]1CC[C@H](N(C)C)CC1 [Compound 146]	< 10	161	217
CCN(c1cc(-c2ccc(CN3CCC[C@H](O)C3)nc2)cc(C(=O)NCc2c(C)cc(C)[nH]c2=O)c1C)[C@H]1CC[C@H](N(C)C)CC1 [Compound 147]	< 10	74.3	116
CCN(c1cc(-c2ccc(CN3CC[C@H](O)C3)nc2)cc(C(=O)NCc2c(C)cc(C)[nH]c2=O)c1C)[C@H]1CC[C@H](N(C)C)CC1 [Compound 148, N-((4,6-Dimethyl-2-oxo-1,2-dihydropyridin-3-yl)methyl)-3-((4-trans-(dimethylamino)cyclohexyl)(ethyl)amino)-5-(6-(((S)-3-hydroxypyrrolidin-1-yl)methyl)pyridin-3-yl)-2-methylbenzamide]	< 10	504	243
CCN(c1cc(-c2ccc(CN3CC[C@H](O)C3)nc2)cc(C(=O)NCc2c(C(C)C)cc(C)[nH]c2=O)c1C)[C@H]1CC[C@H](N(C)C)CC1 [Compound 150]	< 10	377	361
CCN(c1cc(-c2ccc(COC)nc2)cc(C(=O)NCc2c(C)cc(C)[nH]c2=O)c1C)[C@H]1CC[C@H](N(C)C)CC1 [Compound 152]	18	60	412
CCN(c1cc(-c2ccc(C(=O)NCCO)cc2)cc(C(=O)NCc2c(C(C)C)cc(C)[nH]c2=O)c1C)C1CCOCC1 [Compound 156]	< 10	684	890

More lines, main results first:

IC50 [1] [nM]	IC50 [2] [nM]	Compound	IC50 (WSU-DLCL2 cells) [nM]
< 10	66	CCN1CCC(C#Cc2cc(C(=O)NCc3c(C)cc(C)[nH]c3=O)c(C)c(N(CC)C3CCOCC3)c2)CC1 [Compound 104]	549
< 10	44	CCN(c1cc(C#CCN2CCCCC2)cc(C(=O)NCc2c(C)cc(C)[nH]c2=O)c1C)C1CCOCC1 [Compound 106]	188
11	28	CCN(c1cc(C#CCN2CCCC2)cc(C(=O)NCc2c(C)cc(C)[nH]c2=O)c1C)C1CCOCC1 [Compound 107]	26.2
< 10	2030	CCN(c1cc(-c2cnc(OC)cn2)cc(C(=O)NCc2c(C(C)C)cc(C)[nH]c2=O)c1C)C1CCOCC1 [Compound 126]	906
< 10	525	CCN(c1cc(-c2cnc(OC(C)C)cn2)cc(C(=O)NCc2c(C)cc(C)[nH]c2=O)c1C)C1CCOCC1 [Compound 127]	717
< 10	1550	CCN(c1cc(-c2cnc(C(F)(F)F)cn2)cc(C(=O)NCc2c(C)cc(C)[nH]c2=O)c1C)C1CCOCC1 [Compound 128]	975
< 10	306	CCN(c1cc(-c2cnc(OC3CN(C)C3)cn2)cc(C(=O)NCc2c(C)cc(C)[nH]c2=O)c1C)C1CCOCC1 [Compound 131]	194
20	177	CCN(c1cc(-c2cnc(OC3CCN(C)CC3)cn2)cc(C(=O)NCc2c(C)cc(C)[nH]c2=O)c1C)C1CCOCC1 [Compound 132]	526
< 10	20	CCN(c1cc(-c2cnc(N3CCN(C)CC3)cn2)cc(C(=O)NCc2c(C)cc(C)[nH]c2=O)c1C)[C@H]1CC[C@H](N(C)C)CC1 [Compound 149]	316
< 10	618	CCN(c1cc(-c2ccc(CN3CC(O)C3)nc2)cc(C(=O)NCc2c(C)cc(C)[nH]c2=O)c1C)[C@H]1CC[C@H](N(C)C)CC1 [Compound 151]	682
